In patent US20260062422A1 (Halda Therapeutics OpCo, Inc., priority 2022, published 2026):

Tests used:
[1] = system: T47D cells; experiment: Cellular growth inhibition assay for T47D cells, CellTiter-Glo; format: cell-based, human; settings: Homo sapiens, T47D, 72 h, 72 hours treatment, CellTiter-Glo 2.0 cell viability
In short: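 Growth inhibition as GI50, fitted with four parameters to CellTiter-Glo luminescence after 72 h of compound exposure (0.5% DMSO). Cells were T47D, grown in insulin-supplemented (0.2 units/mL) DMEM with 10% FBS and treated one day post-seeding.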

[2] = Cellular growth inhibition, T-Rex 293 SC cells with doxycycline (progesterone receptor isoform B induced), Example 45; format: cell-based; settings: progesterone receptor isoform B induced with 10 ng/mL doxycycline, 72 hours, CellTiter-Glo 2.0, Table 11
Experimental: (§1) The following types of cells were prepared for this experiment: (i) a T-Rex 293 cell line having increased expression of progesterone receptor isoform B protein due to exposure to doxycycline and (ii) a T-Rex 293 cell line lacking increased expression of progesterone receptor isoform B protein. Ability of the test compounds to inhibit proliferation of the foregoing cell types was evaluated according to the procedures set forth below.
(§2) The doxycycline-inducible progesterone receptor isoform B protein expressing cell line was established using the following protocol: T-Rex 293 cells were purchased from Invitrogen (Cat #R71007) and transfected using Lipofectamine 2000 with the wild-type progesterone receptor B protein sequence cloned into the pcDNA4/TO vector. Transfected cells were selected using 400 μg/mL Zeocin (Invitrogen Cat #R25001). Following selection, single clones were raised and maintained in Dulbecco's Modified Eagle Medium (DMEM) supplemented with 10% w/w Tetracycline-free fetal bovine serum (FBS) and 250 μg/mL Zeocin. Clones were analyzed for expression of progesterone receptor isoform B protein in the presence and absence of 10 ng/mL doxycycline (Sigma Cat #D9891), and a single doxycycline-inducible clone (hereinafter “SC”) was selected for use in downstream assays.
(§3) The SC cells were seeded on poly-D-lysine coated, black clear-bottom 384-well plates at 2500/well, in 25 μL Phenol Red Free Dulbecco's Modified Eagle Medium (DMEM) supplemented with 10% w/w charcoal-dextran treated fetal bovine serum (FBS) and 1% w/w pen-strep, with or without 10 ng/mL doxycycline. Pen-Strep is a commercially available mixture of penicillin G and streptomycin, which is used in mammalian cell culture media to prevent bacterial contamination. Phenol Red Free Dulbecco's Modified Eagle Medium (DMEM) supplemented with 10% w/w charcoal-dextran treated fetal bovine serum (FBS) and 1% w/w pen-strep, with or without 10 ng/mL doxycycline is herein referred to as Treatment Medium. Following seeding of cells in the plates, the plates were spun at 300×g for 30 seconds, then equilibrated to room temperature for 30 minutes, and then deposited in a humidified tissue culture incubator maintained at 37° C. with 5% CO2.
(§4) At 24 hours after seeding of the cells, dilutions of test compound were prepared in DMSO and dissolved in Treatment Medium, to achieve a final DMSO concentration of 0.5% w/w, thereby providing the Test Compound Solution. A 25 μL aliquot of the Test Compound Solution was added to cells in the well plates. An equal volume of a solution containing DMSO and Treatment Medium was used as a negative control. Following treatment of cells with Test Compound Solution or said equal volume of a solution containing DMSO and Treatment Medium, the plates were spun at 300×g for 30 seconds, and then left in an incubator for 72 hours.
(§5) At the end of the treatment duration, cell viability was quantified with CellTiter-Glo 2.0 reagent (Promega Cat #G9243). For this purpose, plates were equilibrated to room temperature for 30 minutes, and then 25 μL of CellTiter-Glo 2.0 reagent was added to cells in the plate wells. Plates were then agitated on a shaker for two minutes at 500 rpm and subsequently incubated at room temperature for 10 minutes. Following incubation, the plates were spun at 3000×g for 30 seconds, then sealed with an optical adhesive cover, and luminescence readings were measured with an EnVision Plate Reader (Perkin Elmer).
(§6) Data was normalized using zero luminescence for baseline. A four-parameter non-linear regression curve fit was applied to dose-response data in GraphPad Prism data analysis software to determine the half-maximal growth inhibitory concentration (GI50) for each test compound.

[3] = system: T-Rex 293 cell line SC cells lacking increased expression of progesterone receptor isoform B protein; experiment: Cellular growth inhibition, T-Rex 293 SC cells without doxycycline, Example 45; format: cell-based; settings: T-Rex 293 SC cells not exposed to doxycycline, 72 hours treatment, CellTiter-Glo 2.0
Experimental: as §1, §2, §3, §4, §5, §6

SMILES | GI50 [1] [nM] | GI50 [2] [nM] | GI50 [3] [nM]
Cc1sc2c(c1C)C(c1ccc(CC3CN(CC4CCN(c5ncc(C(=O)N[C@H]6C(C)(C)[C@H](Oc7ccc(C#N)c(Cl)c7)C6(C)C)cn5)CC4)C3)cc1)=N[C@@H](Cc1ncco1)c1nnc(C)n1-2 [Compound I-153] | < 500 | < 500 | < 500
CCNC(=O)C[C@@H]1N=C(c2ccc(N(C3CC3)C3CN(CC4CCN(c5ncc(C(=O)N[C@H]6C(C)(C)[C@H](Oc7ccc(C#N)c(Cl)c7)C6(C)C)cn5)CC4)C3)cc2)c2c(sc(C)c2C)-n2c(C)nnc21 [Compound I-129] | 500 to 1500 | < 500 | 500 to 1500
CCNC(=O)C[C@@H]1N=C(c2ccc(OC3CCN(c4ncc(C(=O)N[C@H]5C(C)(C)[C@H](Oc6ccc(C#N)c(Cl)c6)C5(C)C)cn4)CC3)cc2)c2c(sc(C)c2C)-n2c(C)nnc21 [Compound I-61] | 500 to 1500 | < 500 | 500 to 1500
Cc1sc2c(c1C)C(c1ccc(OC3CN(CC4CCN(c5ncc(C(=O)N[C@H]6C(C)(C)[C@H](Oc7ccc(C#N)c(Cl)c7)C6(C)C)cn5)CC4)C3)cc1)=N[C@H](Cc1ncco1)c1nnc(C)n1-2 [Compound I-169] | < 500 | < 500 | < 500
CCNC(=O)C[C@@H]1N=C(c2ccc(OCCCC#Cc3ncc(C(=O)N[C@H]4C(C)(C)[C@H](Oc5ccc(C#N)c(Cl)c5)C4(C)C)cn3)cc2)c2c(sc(C)c2C)-n2c(C)nnc21 [Compound I-83] | 500 to 1500 | < 500 | 500 to 1500
Cc1sc2c(c1C)C(c1ccc(C#CC3CC4(CCN(c5ncc(C(=O)N[C@H]6C(C)(C)[C@H](Oc7ccc(C#N)c(Cl)c7)C6(C)C)cn5)CC4)C3)cc1)=N[C@@H](Cc1ncco1)c1nnc(C)n1-2 [Compound I-267] | < 500 | < 500 | 500 to 1500
Cc1sc2c(c1C)C(c1ccc(C3CC3C3CC4(CCN(c5ncc(C(=O)N[C@H]6C(C)(C)[C@H](Oc7ccc(C#N)c(Cl)c7)C6(C)C)cn5)CC4)C3)cc1)=N[C@@H](Cc1ncco1)c1nnc(C)n1-2 (stereo partly drawn) [Compound I-237] | < 500 | < 500 | > 3000
Cc1sc2c(c1C)C(c1ccc(OCCOC3CCN(c4ncc(C(=O)N[C@H]5C(C)(C)[C@H](Oc6ccc(C#N)c(Cl)c6)C5(C)C)cn4)CC3)cc1)=N[C@@H](CC(=O)O)c1nnc(C)n1-2 [Compound I-38] | 500 to 1500 | > 3000 | > 3000
Cc1sc2c(c1C)C(c1ccc(N3CC(C4CCN(c5ncc(C(=O)N[C@H]6C(C)(C)[C@H](Oc7ccc(C#N)c(Cl)c7)C6(C)C)cn5)CC4)C3)cc1)=NC(Cc1ncco1)c1nnc(C)n1-2 (stereo partly drawn) [Compound I-209] | < 500 | < 500 | 500 to 1500
Cc1sc2c(c1C)C(c1ccc(N3CC(C4CCN(c5ncc(C(=O)N[C@H]6C(C)(C)[C@H](Oc7ccc(C#N)c(Cl)c7)C6(C)C)cn5)CC4)C3)cc1)=N[C@@H](C)c1nnc(C)n1-2 [Compound I-271] | 500 to 1500 | < 500 | 500 to 1500
Cc1sc2c(c1C)C(c1ccc(C#CCN3CCN(c4ncc(C(=O)N[C@H]5C(C)(C)[C@H](Oc6ccc(C#N)c(Cl)c6)C5(C)C)cn4)CC3)cc1)=N[C@@H](CC(=O)OC(C)(C)C)c1nnc(C)n1-2 [Compound I-55] | > 3000 | < 500 | 500 to 1500
Cc1sc2c(c1C)C(c1ccc(O[C@H]3CC[C@@]4(CCCN(c5ncc(C(=O)N[C@H]6C(C)(C)[C@H](Oc7ccc(C#N)c(Cl)c7)C6(C)C)cn5)C4)CC3)cc1)=N[C@@H](Cc1ncco1)c1nnc(C)n1-2 [Compound I-172] | < 500 | < 500 | 500 to 1500
Cc1sc2c(c1C)C(c1ccc(N3CC(CC4CCN(c5ncc(C(=O)N[C@H]6C(C)(C)[C@H](Oc7ccc(C#N)c(Cl)c7)C6(C)C)cn5)CC4)C3)cc1)=N[C@@H](C)c1nnc(C)n1-2 [Compound I-270] | < 500 | < 500 | 500 to 1500
